These results are taken from publication PMC4581228, “Membrane Affinity of Platensimycin and Its Dialkylamine Analogs” (International Journal of Molecular Sciences, 2015).

Data set [1] has as its system Bacillus subtilis. Put plainly: Minimal inhibitory concentration with cultures of Bacillus subtilis. The format is cell-based. Particulars: in experiments; organism not given. The text has this:
Principally, the efficacy of a drug depends on permeability (first selection), the degree of inhibition of the biological target, rates of drug efflux, drug breakdown, off target binding, and sequestration. In the case of platensimycin, the biological target is FabF. […] Details of docked conformations are presented in the Supplementary Figure S2A,B. Platensimycin and QD-11 show the same estimated binding affinity to FabF (C163Q) (PDB ID: 2GFX) and both are potent antibiotics. […] More specifically, platensimycin and myrtemycin were active against Gram-positive bacteria (S. aureus, MRSA; E. faecium, VRE and B. subtilis) and also Gram-negative bacteria, E. coli (but only when co-adminsitered with Phe-Arg-β-naphthylamide dihydrochloride, PAβND, which is a bacterial efflux pump inhibitor) as described in [18]. For the purpose of comparison with the computational docking predictions, here we present data for B. subtilis.
The bottom row in Table 1 presents minimal inhibitory concentrations (MIC) for all of the substances assayed with gram-positive and gram-negative bacteria. […] Despite the fact that the heterocyclic G271 partitioned into the membrane very well, and can be docked well into FabF, it had virtually no antimicrobial activity.

A short description of data set [2]: Tensiometry at the air-water interface (Wilhelmy method). The format is physicochemical. The conditions noted are these: for log KAW (tens.): air-water partitioning coefficient, tensiometry, buffer pH 7.4; for Concentration at which changes of surface tension were detected: detected only at this concentration. The protocol: Surface tensions of subphase solutions with varying concentrations of platensimycin analogs were quantified using the Wilhelmy method with a piece of filter paper (Whatman, No. 1, 10.5 mm wide and 0.25 mm thick) used as a probe. The subphase buffer consisted of 200 mM KCl, 10 mM MgCl2, 5 mM CaCl2, 5 mM HEPES (Sigma-Aldrich, St. Louis, MO, USA) titrated to a pH of 7.4 with KOH. The pressure sensor (model 601, NIMA, Coventry, UK) was calibrated using a 100 mg weight. Water surface tension was measured to be […], after calibration. […] The surface activity and values for molecular area at the surface of the air-water interface (As), the partition coefficient at the air-water interface of the surface active molecule (KAW), and the membrane partitioning coefficient (Kmem), were determined as described previously.
The analysis of interfacial adsorption data was performed in the general framework of the Gibbs equation (1) dπ=∑Γidμi where dπ represents a small change in surface pressure, Γi is surface excess of component i and dμi is the small change of chemical potential of that component in the aqueous phase. For one adsorbing component, in an ideal case the Gibbs isotherm takes the form (2) dπ=RTΓd ln C where surface excess is defined as the surface density of molecules Γ = 1/(NAaS), NA is Avogadro’s number and aS is the area requirement for the molecule at the surface. The adsorbing substance gradually saturates the surface; the process that can be approximated by a Langmuir isotherm: (3) Γ=Γ∞lnKAW⋅C/1+KAW⋅C
Thus, beyond a certain bulk concentration, Γ approaches a constant value of Γ∞ and in that range of concentrations a linear relationship holds: (4) Γ∞=(1/RT)dπ/d ln C
To evaluate the partition coefficient for an air-water interface (KAW) and monolayers (Klip), the integral form of this equation attributed to Szyszkowski and previously applied to monolayers by Seelig and coworkers was used: (5) π=RTΓ∞ln(KAWC+1)
As was shown in Suomolainen 2004 [5], the x-intercept of the fitting line of experimental π-lnC curve would approximate the inverse partitioning coefficient 1/KAW, measured at the air-water interface.

A short description of data set [3]: Langmuir monolayer pressure-area isotherms. The format is physicochemical, E. coli. Particulars: for log Klip @ 20 mN/m, Measured: E. coli polar lipid monolayer, pH 7.4, ~20 °C; for Effective Molec. Area (ad): area taken by the drug in the monolayer, from slopes of log(ΔArea) vs. surface pressure; for log Klip @ 35 mN/m, Corrected: corrected to the monolayer-bilayer equivalence pressure 35 mN/m (Equation 6). The protocol:
All Langmuir monolayer experiments were done with a two-barrier rectangular 22 cm × 6 cm trough (MicroTrough XS, Kibron Inc., Helsinki, Finland) placed in an Airclean hood. A Dyneprobe metal alloy needle was used as the Wilhelmy plate. Lipids used were E. coli total polar lipid extract from Avanti Polar Lipids (Alabaster, AL, USA) dissolved in chloroform or hexane to a final concentration of 0.2 mg/mL. Distribution of lipids onto the subphase was accomplished using a gastight 50 µL Hamilton® syringe (Hamilton, Reno, NV, USA). The subphase buffer was identical to the tensiometry buffer. Pressure—Area isotherms (monolayers) were performed at room temperature (~20 °C) from 114 to 18 cm^2 at a barrier rate of 20 mm/min. For each analog, isotherms were measured at least four times at every concentration.
In Langmuir experiments, the value of the bulk-monolayer (Klip) partitioning coefficient was determined in a similar way, using the deviations of surface pressure of monolayers measured at constant area. […] However, at this compression, strongly intercalating substances produced pressure shifts beyond the collapse pressure of 45–47 mN/m, which forced us to score Δπ from surface pressure of 20 mN/m achieved at ~80 Å^2/molecule. Klip1 obtained in this expanded state was than corrected for the lateral pressure increase from π1 = 20 to π2 = 35 mN/m, which has the same form as Equation (7) in [5]: (6) ln(Klip2)=ln(Klip1)−(π2−π1)adNA/RT
Here ad is the area taken by the drug in the plane of the monolayer.
To estimate ad we assumed equilibrium between the drug in the subphase and in the monolayer and equated its chemical potentials in the two phases: (7) μ0+RTln(χd)=μ0σ+RTln(χdσ)+π⋅adNA
The right part with indexes σ represents the surface parameters of standard chemical potential µ0σ and drug mole fraction χdσ , whereas the left part represents the bulk parameters. Defining lnKlip = µ0σ −µ0 one can rearrange this equation as (8) lnKlip−lnχdσ−lnχd=π⋅adNA/RT
Differentiating with respect to π gives (9) −RTd(lnχdσ)/NAdπ=ad
Thus the molecular area of the drug defines the slope of χdσ , with which the drug re-partitions back to the subphase as surface pressure π increases. We further assume that at a given surface pressure, insertion of nd drug molecules into the film comprised of nL lipid molecules with initial area A0, should dilate the film by ΔA. (10) nd/nL=ΔA/A0⋅aL/ad
The parameter aL, the area per lipid at that particular pressure, is taken from the control pressure-area isotherm with no drug. The mole fraction of the drug in the monolayer χdσ = nd/(nd + nL) is related to the extent of monolayer dilation ΔA (11) ΔA=ad⋅nd=adnL⋅χdσ/1−χdσ
On the assumption that χdσ is small, ΔA is proportional to the mole fraction of the drug. In Equation (4) we substitute and obtain (12) −kTd(lnΔA)/dπ=ad
Thus, the molecular area of the drug can be determined from the logarithmic slope of ΔA on surface pressure. Once we know ad, we can introduce a correction to Klip due to lateral pressure change ([…]). In addition, we can estimate the molar ratio of drug-to-lipid, the mole fraction χdσ and the partitioning constant. From the extent of monolayer dilation at a constant surface pressure (chosen to be 20 mN/m), the apparent bulk-monolayer partitioning coefficient Klip could be independently estimated as Klip=χdσ/χd , where […] = Cd/55 represents the drug mole fraction in the subphase.

Data set [4] has as its system A98S MscS in the cytoplasmic membrane of E. coli. As to the kind of experiment: Patch-clamp of A98S MscS in excised spheroplast patches (activation midpoint shift). Particulars: for Redistribution / return of activation midpoint: within the observation time, Supplementary Figure S4; for log Kmem (patch-clamp): x-intercept of midpoint shift (∆p0.5) vs. concentration, native E. coli membrane, cytoplasmic side. Here is the method: A pB10b vector was used to house and express the mscS gene in the triple-knockout E. coli strain MJF465 (mscS^−, mscL^−, mscK^−). The A98S MscS mutant, generated and partially characterized previously, was chosen for its higher sensitivity to inner leaflet drug partitioning.
Spheroplasts were generated as described previously. The experimental bath solution contained 400 mM sucrose, 200 mM KCl, 50 mM MgCl2, 5 mM CaCl2, and 5 mM HEPES and was titrated to pH 7.4 with KOH. Membrane patches were obtained on borosilicate glass pipettes and recorded at 30 mV pipette voltage set by a microelectrode amplifier. The midpoint of activation for channels in each patch was determined at two-minute intervals for the duration of the experiment via a 1 s ramp of saturating pressure. Analogs of platensimycin were pre-diluted in either ethanol or bath solution and perfused into the bath to achieve the desired concentration; control injections of equivalent volumes of ethanol had no effect on the midpoint of activation. Negative pressure (suction) was applied with the HSPC-1 high speed pressure clamp apparatus from ALA Scientific. Programming of the pressure protocols and data analysis was performed with the PClamp10 suite (Axon Instr., Foster City, CA, USA). The principle of lateral pressure measurements using two experimental systems, lipid monolayers and patch-clamp, is illustrated in Figure 1.
Similarly, the bulk-membrane partitioning coefficient (Kmem) was estimated from the values of relative increase in MscS activation pressure midpoint (p0.5) measured in patch-clamp experiments at different concentrations of intercalating agents by linear fit of Δp0.5 as a function of log(Cd).

Data set [5] concerns Bacillus subtilis. Particulars: cited from earlier work; for MIC for B. subtilis: cultures of Bacillus subtilis, ref 22 (table title).
The next data set deals with S. aureus, MRSA. Set-up: method as in PMID 17707686. Particulars: Gram-positive; cited from earlier work.
A further data set has as its system E. faecium, VRE. Set-up: method as in PMID 17707686. The conditions noted are these: Gram-positive; cited from earlier work.
The next data set concerns E. coli. Set-up: method as in PMID 17707686. The conditions noted are these: Gram-negative; only when co-administered with Phe-Arg-β-naphthylamide dihydrochloride (PAβND), efflux pump inhibitor; cited from earlier work.

Molecules are shown by their SMILES.

With `O=C(CCN(Cc1cccnc1)Cc1cccnc1)Nc1c(O)ccc(C(=O)O)c1O` [G258], the “Biological / antibiotic activity” value in the data set with Bacillus subtilis [1] was “essentially no biological activity”. In data set [2], the “log KAW (tens.)” value was found to be 4.2 and the “Concentration at which changes of surface tension were detected” value is on record as 10^−4 M. For the same compound, in data set [3], the “log Klip @ 20 mN/m, Measured” value worked out at 5.9; the “Effective Molec. Area (ad)” value amounted to 18 Å^2; the “log Klip @ 35 mN/m, Corrected” value came to 5.6. The “Redistribution / return of activation midpoint” value (“Redistribution / return” below) in data set [4] is reported as “relatively fast”. In the data set on Bacillus subtilis [5], the “MIC for B. subtilis” value was greater than 512 µg/mL.

In the case of `Cn1ccnc1CN(CCC(=O)Nc1c(O)ccc(C(=O)O)c1O)Cc1nccn1C` [G262], the “Biological / antibiotic activity” value in the data set on Bacillus subtilis [1] is “essentially no biological activity”. In addition, in data set [2], the “log KAW (tens.)” value came to 4.2 and the “Concentration at which changes of surface tension were detected” value is reported as 10^−4 M. Moreover, in data set [3], the “log Klip @ 20 mN/m, Measured” value is reported as 5.9; the “Effective Molec. Area (ad)” value came out at 17 Å^2; the “log Klip @ 35 mN/m, Corrected” value is 5.6. Besides, in data set [4], the “Redistribution / return” value is reported as “did not return back”. For the same compound, the “MIC for B. subtilis” value in the data set on Bacillus subtilis [5] is given as greater than 512 µg/mL.

Take `O=C(CCN(Cc1ccc2c(c1)OCO2)Cc1ccc2c(c1)OCO2)Nc1c(O)ccc(C(=O)O)c1O` [G271]: the “Biological / antibiotic activity” value in the data set on Bacillus subtilis [1] is “no antibiotic activity”. The “log KAW (tens.)” value in data set [2] was 4.5. Further, in data set [3], the “log Klip @ 20 mN/m, Measured” value came to 6.1; the “Effective Molec. Area (ad)” value worked out at 18 Å^2; the “log Klip @ 35 mN/m, Corrected” value is recorded as 5.8. For the same compound, in data set [4], the “Redistribution / return” value is reported as “did not return back” and the “log Kmem (patch-clamp)” value was determined as 6.1. For the same compound, the “MIC for B. subtilis” value in the data set on Bacillus subtilis [5] was greater than 512 µg/mL.

Take `CC12C[C@@]34C=CC(=O)[C@@](C)(CCC(=O)Nc5c(O)ccc(C(=O)O)c5O)C3[C@H](CC1C4)O2` (stereo partly drawn) [PL, platensimycin]: the “log KAW (tens.)” value in data set [2] is listed as 4.6. Besides, in data set [2] (up to 30 µM), the “Effect on surface tension” value was “no visible effect”. Moreover, in data set [3], the “log Klip @ 20 mN/m, Measured” value is reported as 6.6; the “Effective Molec. Area (ad)” value is 34 Å^2; the “log Klip @ 35 mN/m, Corrected” value was 6.1. In addition, in data set [3] (listed as platensimycin), the “Effective Molec. Area (ad)” value is 31–34 Å^2. Further, the “log Kmem (patch-clamp)” value in data set [4] was determined as 5.0. Moreover, the “Activity against B. subtilis” value in the data set on Bacillus subtilis [5] (Gram-positive) is listed as “active”. Also, the “MIC for B. subtilis” value in the data set with Bacillus subtilis [5] is 2 µg/mL. In addition, the “Activity against S. aureus, MRSA” value in the data set with S. aureus, MRSA is reported as “active”. Further, the “Activity against E. faecium, VRE” value in the data set on E. faecium, VRE is on record as “active”. Also, in the data set on E. coli, the “Activity against E. coli” value was “active”.

As to `CCCCN(CCCC)CCC(=O)Nc1c(O)ccc(C(=O)O)c1O` [QD-06], the “log KAW (tens.)” value in data set [2] came out at 4.1. In data set [3], the “log Klip @ 20 mN/m, Measured” value was determined as 5.0; the “Effective Molec. Area (ad)” value is listed as 30 Å^2; the “log Klip @ 35 mN/m, Corrected” value is reported as 4.5. Also, the “log Kmem (patch-clamp)” value in data set [4] is 5.5. Besides, in the data set with Bacillus subtilis [5], the “MIC for B. subtilis” value is given as 128 µg/mL.

Consider `CC1(C)C2CC=C(CNCCC(=O)Nc3c(O)ccc(C(=O)O)c3O)C1C2` (stereo not drawn) [QL-03], for which the “log KAW (tens.)” value in data set [2] was found to be 5.0. In data set [3], the “log Klip @ 20 mN/m, Measured” value came out at 5.6; the “Effective Molec. Area (ad)” value was determined as 28 Å^2; the “log Klip @ 35 mN/m, Corrected” value is 5.2. Further, the “log Kmem (patch-clamp)” value in data set [4] was 6.1. In the data set with Bacillus subtilis [5], the “MIC for B. subtilis” value is greater than 256 µg/mL.
